Entries after “also recorded” stand apart in the source; their conditions may differ. Each block holds one molecule with its values, some of them ahead of it.
Legend:
[1] = system: F4 osteosarcoma tumor xenograft; assay: In vivo NIR imaging, side-by-side with free dye; set-up: species or system athymic nude mice; conditions: for clearance from the body, time: following the injection
Protocol: (§1) Four- to six-week-old male athymic nude mice (18-22 g) were housed and fed sterilized pellet chow and provided sterilized water. Animals were maintained in a pathogen-free mouse colony. The facility is accredited by the American Association for Laboratory Animal Care, and all experiments were performed in accordance with the guidelines of the Institutional Animal Care and Use Committee. Tumor cells were harvested near confluence by incubating them with 0.05% trypsin-EDTA. Cells were pelleted by centrifugation at 130×g for five minutes and resuspended in sterile phosphate-buffered saline (PBS). Tumors were induced in animals by subcutaneous injection of approximately one million tumor cells into the hind leg region of the mice. A total of 75 mice were used in this study.
(§2) The NIR-labeled retinoid agent was intraveneously (i.v.) injected into the tumor-bearing mice at a dose of 10 nmol for imaging. The animals were imaged from 1 to 9 days after the injection using an In-Vivo Multispectral System FX, a tandem (SPECT/CT) single photon emission computed tomography (SPECT) and computed tomography (CT) system and imaged with a positron emission tomography (PET) system.
Regions of interest were quantified from the in vitro and in vivo data using ImageJ (National Institutes of Health, USA). Data were analyzed using one-way (analysis of variance) ANOVA or general linear model (GLM). Data comparisons were illustrated in notched box-and-whisker plots. These plots provide the minimum, 25th percentile, median (central line), mean (+), 75th percentile and maximum.
The tumor mass was located in the left hind region of the mouse (FIG. 2A). There was no calcification of the tumor mass (FIG. 2B). […] To eliminate the potential well-established enhanced permeability and retention (EPR) effect of the imaging results, a side-by-side imaging comparison was performed to study and to directly compare the free dye (FIG. 2E to FIG. 2I) and compound 3 (FIG. 2J to FIG. 2M). The same intensity scale was used in this analysis. […] Finally, the merged free dye, RGD and CT images show the only high vasculature signal in the vicinity of the tumor (FIG. 2I). In contrast, the merged compound 3, RGD and CT images show both vasculature and RA (compound 3) signal intensity increases in the tumor region (FIG. 2N, yellow). All of the data were further analyzed at the animal population level.

[2] = system: human osteosarcoma F5M2 cells; assay: Confocal microscopy cell binding/uptake; type: cell-based; conditions: 100 μm, 60 minutes at 37° C.
Protocol: (§3) The human colon (HT-29), nasal (CCL-30) and lung (A549) cancer cell lines were purchased from the American Type Culture Collection (ATCC, Manassas, Va.). Human osteosarcoma (F5M2, OS-9901, SOSP-S607, F4, CM319) and nasopharyngeal carcinoma cell lines (CNE-2) were generated in-house. The cells were cultured in Dulbecco's Modified Eagle Medium supplemented with high glucose and F12 nutrient (DMEM/F12, Invitrogen, Carlsbad, Calif.) with 10% fetal bovine serum (Hyclone, Logan, Utah) in a humidified incubator maintained at 37° C. with 5% CO2.
(§4) Cells were harvested, and the NIR-labeled retinoid agent or the free dye (100 μm) was added. The mixture was incubated for 60 minutes at 37° C. Cells were washed in PBS. Sytox Green in 95% ethanol was added, and cells were incubated for 15 minutes at 4° C. to fix them and stain their nuclei. Stained cells were then transferred to a slide and mounted for microscopic examination. Images were recorded by an Olympus confocal microscope. The microscope was equipped with an excitation (Ex) light source and emission (Em) filters to detect and separate the labeled retinoids (ex/em 785/810 nm) and cell nuclei (Ex/Em 488/510 nm) signals. Confocal image signals were recorded from one slice of a cell z-stack. Sytox green and NIR-labeled retinoid or NIR dye signals were pseudo-colored green (emission at 510 nm) and red (emission at 810 nm), respectively.
(§5) The uptake of NIR-labeled retinoid agent by human cancer cells was verified by confocal microscopy (FIG. 1A to 1H). […] The nuclear internalization was temperature-dependent (FIG. 1J and FIG. 1K). The signal intensity was stronger in cells incubated at 37° C. (FIG. 1I) than in those incubated at 4° C. (FIG. 1L) or the negative cells incubated at 37° C. (FIG. 1M, FIG. 1N, and FIG. 1O). These differences are statistically significant (FIG. 1P).

[3] = system: human osteosarcoma OS-9901 cells; assay: Confocal microscopy cell binding/uptake; type: cell-based; conditions: 100 μm, 60 minutes at 37° C.
Protocol: as §3, §4, §5

[4] = system: human colon cancer (HT-29) cells; assay: Confocal microscopy cell binding/uptake; type: cell-based; conditions: 100 μm, 60 minutes at 37° C.
Protocol: as §3, §4, §5

[5] = system: human osteosarcoma F4 cells; assay: Confocal microscopy cell binding/uptake; type: cell-based; conditions: 100 μm, 60 minutes at 37° C.
Protocol: as §3, §4, §5

[6] = system: human lung cancer (A549) cells; assay: Confocal microscopy cell binding/uptake; type: cell-based; conditions: 100 μm, 60 minutes at 37° C.
Protocol: as §3, §4, §5

[7] = system: human nasopharyngeal cancer (CNE-2) cells; assay: Confocal microscopy cell binding/uptake; type: cell-based; conditions: 100 μm, 60 minutes at 37° C.
Protocol: as §3, §4, §5

[8] = system: human osteosarcoma SOSP-9607 cells; assay: Confocal microscopy cell binding/uptake; type: cell-based; conditions: 100 μm, 60 minutes at 37° C.
Protocol: as §3, §4, §5

[9] = system: human colon, lung, nasal cancer, and neuroblastoma xenografts; assay: In vivo NIR imaging of other xenografts; set-up: species or system athymic nude mice; conditions: across all four tumor xenografts
Protocol: as §1, §2
To confirm the findings in other cancer cell types, the RA agent was tested in human colon (FIG. 4A), lung (FIG. 4B), nasal (FIG. 4C) cancer, and neuroblastoma (FIG. 4 D) xenografts. […]

[10] = system: human colon cancer xenograft; assay: Tumor-to-muscle and liver-to-tumor ratios over time; type: in vivo, athymic nude mice; conditions: for signal in the liver versus background/muscle level: 14 days post-injection, single 18.4 μg injection
Protocol: as §1
as §2, with “The animals were imaged from 1 to 9 days after the injection using an In-Vivo Multispectral” left out
[…] […] The imaging agent was initially concentrated in the liver after the injection, but it gradually redistributed from the liver to the tumor over time. […] The maximum TMR (2.7) was reached 6 days post-injection in some animals, after which it started to decrease.

[11] = Systemic toxicity by bodyweight gain; type: in vivo, mice
Protocol: (§6) Tumor-bearing mice were divided into three groups for the dose acceleration study; they were injected with 0.03 mg, 0.06 mg, or 0.125 mg of the NIR-labeled retinoid agent that was equivalent to the non-labeled retinoid, respectively. The tumor-to-muscle ratio was calculated from the imaging data. The systemic toxicity was measured using control mice. The mice were treated with PBS (control), a low dose (0.1 mg/kg/week), or a dosage that was five times lower than that reported in published human clinical trials (0.6 mg/kg/week). The bodyweight was measured every other day, and the percentage gain in bodyweight was used as the toxicity indicator.
(§7) To test for a saturation effect of the target-specific biological agent, three groups of animal were injected with different doses of the retinoid agent. The tumor-to-muscle ratio was used to compare the dose response in the tumor. […] However, the higher dose was associated with a significant decrease in the gain of bodyweight (FIG. 7B).

tumor xenograft = assay: Dose acceleration response (tumor-to-muscle ratio); type: in vivo, mice; conditions: injection dose increased from 0.03 to 0.125 mg, p>0.5270
Protocol: as §6, §7

CM319 osteosarcoma cells = assay: Confocal microscopy cell binding/uptake; type: cell-based, human
Protocol: as §3, §4

human cancer cells = assay: Confocal microscopy: effect of temperature and signal localisation; type: cell-based
Protocol: as §4, §5
The negative cells also show the minimum signal intensity (FIG. 1M and FIG. 1N).

[12] = 30 mg/day, stage I and II head and neck cancer patients; cited from earlier work

optical signal in the animal ([1]; after 24 hours): completely undetectable | clearance from the body, time [1]: 24 h | clearance from the body, time ([1]; listed as free dye): ≤ 24 h
Structure (SMILES): CC1(C)C(=CC=C2CCCC(C=CC3=[N+](CCCCCC(=O)[O-])c4ccc(S(=O)(=O)[O-])cc4C3(C)C)=C2Oc2ccc(S(=O)(=O)[O-])cc2)N(CCCCS(=O)(=O)[O-])c2ccc(S(=O)(=O)[O-])cc21.[Na+].[Na+].[Na+].[Na+] [IRDye800CW, reference compound]
signal intensity (TBR), IRDye800CW group vs RA group ([1]; after 24 hours, P<0.0001): significantly lower | binding to cells (NIR signal, confocal image) [2]: no detectable signal | binding to cells (NIR signal, confocal image) [3]: no detectable signal | binding to cells (NIR signal, confocal image) [4]: no detectable signal | binding to cells (NIR signal, confocal image) [5]: no detectable signal | binding to cells (NIR signal, confocal image) [6]: no detectable signal | binding to cells (NIR signal, confocal image) [7]: no detectable signal | binding to cells (NIR signal, confocal image) [8]: no detectable signal

liver-to-tumor ratio relative to tumor-to-muscle ratio ([10]; 1 day post-injection): almost twice as high | signal in the liver versus background/muscle level ([10]; listed as NIR-labeled retinoid agent): still higher than the background level | signal in the liver versus background/muscle level ([10]; listed as retinoid analog imaging agent): had not returned to the muscle level | time at which liver-to-tumor and tumor-to-muscle ratios intersected ([10]; post-injection): 3 days | signal intensity in the liver and tumor ([1]; 72 hours post-injection): high signal intensity
Structure (SMILES): CC1=C(/C=C/C(C)=C/C=C/C(C)=C/C(=O)NCCCCCCNC(=O)CCCCCN2/C(=C/C=C3\CCCC(/C=C/C4=[N+](CCCCS(=O)(=O)O)c5ccc(S(=O)(=O)O)cc5C4(C)C)=C3Oc3ccc(S(=O)(=O)O)cc3)C(C)(C)c3cc(S(=O)(=O)O)ccc32)C(C)(C)CCC1 [compound 3, RA-HN(CH2)6NH—IRdye 800]
tumor-to-background ratio [9]: 2.15 to 2.74 | maximum tumor-to-muscle ratio (TMR) ([10]; single injection 18.4 μg per 25 grams of bodyweight, some animals): 2.7 | tumor-to-background ratio (TBR) ([1]; 72 hours post-injection, single animal): 2.76 | signal intensity (TBR), IRDye800CW group vs RA group ([1]; within the first 24 hours, P=0.6088): no statistically significant difference | percentage of bodyweight gain vs untreated control and low dose group ([11]; high dose 0.6 mg/kg/week, p=0.0003 vs control, p=0.0001 vs low dose): significantly lower | percentage of bodyweight gain vs control group ([11]; low dose 0.1 mg/kg/week, p=0.0519): no differences | tumor-to-muscle ratio, dose response (tumor xenograft; listed as imaging agent): no statistically significant difference | tumor-to-muscle ratio, dose response (tumor xenograft; listed as retinoid agent): no significant difference | binding to cells (CM319 osteosarcoma cells): strongly binds to all the tested human cancer cell lines except CM319 osteosarcoma cells | binding to cells (NIR signal, confocal image) [2]: bound | binding to cells (NIR signal, confocal image) [3]: bound | binding to cells (NIR signal, confocal image) [4]: bound | binding to cells (NIR signal, confocal image) [5]: bound | binding to cells (NIR signal, confocal image) [6]: bound | binding to cells (NIR signal, confocal image) [7]: bound | binding to cells (NIR signal, confocal image) [8]: bound | binding when incubated at 4° C. (human cancer cells; 4° C.): minimum binding | signal intensity in cells incubated at 37° C. versus 4° C. or negative cells (human cancer cells; 37° C. vs 4° C., statistically significant, listed as NIR-labeled retinoid agent): stronger; also recorded: higher signal intensity was observed at 37 °C than at 4 °C | localisation of retinoid signal in cells (human cancer cells; 37° C., confocal, listed as NIR-labeled retinoid agent): not only detected in the cytoplasm but also in the nuclei; also recorded: localizes to the cell membrane and cytoplasm

Structure (SMILES): CC1=C(/C=C/C(C)=C/C=C/C(C)=C\C(=O)O)C(C)(C)CCC1 [retinoid, isotretinoin]
patients developing adverse effects [12]: 49.7%
